Calls of active or inactive are those of the source. No cut-off for these calls is given here.
Legend:
Plasmodium berghei [1] = experiment: Antimalarial activity against Plasmodium berghei infected in sc dosed mouse assessed as increase in mean survival time; assay type: functional, organism-based
Mus musculus = experiment: Toxicity in sc dosed mouse measured 2 to 5 days post-infection; assay type: organism-based; details: in vivo
Plasmodium berghei [2] = experiment: Antimalarial activity against Plasmodium berghei infected in mouse assessed as cure rate at 640 mg/kg, sc measured on day 60 post-infection; assay type: functional, organism-based; design: dose 640 mg/kg
Plasmodium berghei [3] = experiment: Antimalarial activity against Plasmodium berghei infected in mouse assessed as increase in mean survival time at 40 mg/kg, sc; assay type: functional; details: route subcutaneous
Plasmodium berghei [4] = experiment: Antimalarial activity against Plasmodium berghei infected in mouse assessed as increase in mean survival time at 80 mg/kg, sc; assay type: functional; details: route subcutaneous
Plasmodium berghei [5] = experiment: Antimalarial activity against Plasmodium berghei infected in mouse assessed as increase in mean survival time at 160 mg/kg, sc; assay type: functional; details: route subcutaneous
Plasmodium berghei [6] = experiment: Antimalarial activity against Plasmodium berghei infected in mouse assessed as increase in mean survival time at 320 mg/kg, sc; assay type: functional; details: route subcutaneous

With CN1CCCCC1C(O)c1cc2ccccc2c2cc(Br)ccc12.Cl (stereo not drawn) the Activity (Plasmodium berghei [1]) was “Active” and the Activity (Mus musculus) was “Toxic”.

With OC(c1cc(C(F)(F)F)nc2c(C(F)(F)F)cccc12)C1CCCNC1 (single isomer, unassigned; diastereomer 2) the Activity (Plasmodium berghei [2]) was “inactive”.

OC(c1cc(C(F)(F)F)nc2c(C(F)(F)F)cccc12)C1CCCNC1 (single isomer, unassigned; diastereomer 1) was tested, and the Activity (Plasmodium berghei [2]) was “Active”.

O=C(O)/C=C/C(=O)O.OC(c1cc(C(F)(F)F)nc2c(C(F)(F)F)cccc12)C1CCCNC1 (single isomer, unassigned; diastereomer 1) gave an MST (Plasmodium berghei [3]) of 5.9 days, an MST (Plasmodium berghei [4]) of 10.1 days and an MST (Plasmodium berghei [5]) of 11.2 days. The MST (Plasmodium berghei [6]) was 15.2 days.

Source: ChEMBL document CHEMBL3272062, “Difference in antimalarial activity between certain amino alcohol diastereomers” (J Med Chem, 1976)
